The test concerns gut microbiome. Put plainly: Microbial 16S rDNA analysis of fecal samples. Type of test: in vivo, mice. As to conditions: 38 mg/day hCol1 or glucosamine, FIG. 10C. The procedure:
FIGS. 10A-10C: hCol1 supplementation induces significant change in the gut microbiome. Microbial rDNA analysis was performed on fecal samples collected from lean and obese mice supplemented with control Nutella, 38 mg/day hCol1, or glucosamine. […] FIG. 10A: Principal coordinate analysis of microbial abundance from obese control Nutella (1), obese glucosamine (2), obese hCol1 (3), lean hCol1 (4), lean glucosamine (5) and lean control Nutella (6) mice. […] FIGS. 15A-15G: hCol1 and hCol2 supplementation induces significant change in the gut microbiome and provides protective effects in post-traumatic osteoarthritis. (FIG. 15A) Microbial rDNA analysis was performed on fecal samples collected from chow fed mice supplemented with control Nutella, 38 mg/day hCol1, or 15 mg/day hCol2 for 4 weeks. Bars show relative microbial abundance in the indicated groups. Each bar represents an average of 3 mice. In the chow diet, hCol 1 and 2 tended to have similar effects: Increases in the abundance of Bacteroidales, Lactobacillales, Turicibacterales, and Anaeroplasmatales. […] Panels depicting the tibia uncalcified cartilage area (FIG. 15B), the number of chondrocytes in the tibia uncalcified cartilage (FIG. 15C), the number (FIG. 15D) and percentage (FIG. 15E) of Safranin-O positive (SafO^+) chondrocytes in the tibia uncalcified cartilage, the femur uncalcified cartilage area (FIG. 15F), and the number of chondrocytes in the femur uncalcified cartilage (FIG. 15G) in Sham and DMM chow fed mice supplemented with vehicle (Nutella) (Control DMM), hCol1 (P1 DMM) or hCol2 (P2 DMM) at 12 weeks after injury. FIGS. 16A-16E: (FIG. 16A) Microbial rDNA analysis was performed on fecal samples collected from lean fed mice supplemented with control Nutella, 38 mg/day hCol1, or 15 mg/day hCol2. Bars show relative microbial abundance in the indicated groups. […] Panels depicting the tibia cartilage area (FIG. 16B), the tibia uncalcified cartilage area (FIG. 16C), the number of chondrocytes in the tibia uncalcified cartilage (FIG. 16D), and the percentage (FIG. 16E) of Safranin-O positive (SafO^+) chondrocytes in the tibia uncalcified cartilage in Sham and DMM lean fed mice supplemented with vehicle (Nutella) (Control DMM), hCol1 (P1 DMM) or hCol2 (P2 DMM) at 12 weeks after injury. FIG. 17A-17H: (FIG. 17A) Microbial rDNA analysis was performed on fecal samples collected from high fat (HF) (60% of caloric energy from saturated fat) fed mice supplemented with control Nutella, 38 mg/day hCol1, or 15 mg/day hCol2 for 4 weeks. Bars show relative microbial abundance in the indicated groups. […] Panels depicting the tibia cartilage area (FIG. 17B), the tibia uncalcified cartilage area (FIG. 17C), the number of chondrocytes in the tibia uncalcified cartilage (FIG. 17D), the number of Safranin-O positive (SafO^+) chondrocytes in the tibia uncalcified cartilage (FIG. 17E), the femur uncalcified cartilage area (FIG. 17F), the number of chondrocytes in the femur uncalcified cartilage (FIG. 17G), and the number of Safranin-O positive (SafO^+) chondrocytes in the femur uncalcified cartilage (FIG. 17H) in Sham and DMM high fat diet-fed mice supplemented with vehicle (Nutella) (Control DMM), hCol1 (P1 DMM) or hCol2 (P2 DMM) at 3 weeks after injury. FIG. 19: hCol2 alters the gut microbiome. Mice fed chow or high fat diet for 3 months were supplemented daily with hCol2 (HFD+hCol2) or vehicle (Nutella) (HFD) for 4 weeks. Fecal samples were collected and microbial rDNA analysis was performed. A subset of bacterial species was altered in high fat diet-fed mice compared to chow fed mice, and hCol2 supplementation changed the gut microbiome of these high fat diet-fed mice. Numerous proinflammatory species, particularly Peptococcaceae rc4-4 sp, were reduced in hCol2-supplemented mice (top heat map). Conversely, several anti-inflammatory species were enhanced in hCol2-supplemented animals, including Bifidobacterium pseudolongum (bottom heat map). […]

SMILES strings stand for the structures.

Turning to `N[C@H]1C(O)O[C@H](CO)[C@@H](O)[C@@H]1O` (some centres unmarked) [glucosamine], where the note is “lean mice”, the “relative microbial abundance: Actinobacteria” value worked out at 12.07%, the “relative microbial abundance: Bacteroidetes” value is 13.4103%, the “relative microbial abundance: Firmicutes” value is 72.6939% and the “relative microbial abundance: Tenericutes” value came out at 1.1749%. Further, under “lean mice”, the “relative microbial abundance: Verrucomicrobia” value is 0.0119%. Also, under “lean mice, listed as Glucosamine”, the “relative microbial abundance: Actinobacteria” value stood at 12.7091%. Where the note is “obese mice”, the “relative microbial abundance: Actinobacteria” value came to 0.4928%, the “relative microbial abundance: Bacteroidetes” value was found to be 11.2335%, the “relative microbial abundance: Firmicutes” value worked out at 88.0274% and the “relative microbial abundance: Proteobacteria” value is 0.0005%. For the same compound, under “obese mice”, the “relative microbial abundance: Verrucomicrobia” value came out at 0.2458%.

(Values after patent US11110147B2, “Collagen hydrolysates as a beneficial prebiotic and their effect on joint inflammation and osteoarthritis” (ROUSSELOT B.V., priority 2017, dated 2021).)
